Toxic doses and inconclusive results are not listed. Rule as the data show it: active = T/C of 150% or more; inactive = T/C below 125%.
Tested on: L1210 leukemia ip in BDF1 mice, survival T/C
Assay: NCI In Vivo Anticancer Drug Screen. Data for tumor model L1210 Leukemia (intraperitoneal) in B6D2F1 (BDF1) mice
Conditions: endpoint: mean survival time, higher = longer survival
Summary of the method: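 Tumor cells were implanted, animals were treated, and survival was followed. The result divides the treated measurement by the vehicle-control measurement.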

[1] = dose: 100.0 mg/kg/injection, schedule: Q04DX002 (ip), vehicle: Klucel (hydroxypropylcellulose) (HPC)
[2] = dose: 200.0 mg/kg/injection, schedule: Q04DX002 (ip), vehicle: Klucel (hydroxypropylcellulose) (HPC)
[3] = dose: 400.0 mg/kg/injection, schedule: Q04DX002 (ip), vehicle: Klucel (hydroxypropylcellulose) (HPC)
[4] = dose: 100.0 mg/kg/injection, schedule: Q01DX009 (ip), vehicle: saline with Tween-80
[5] = dose: 100.0 mg/kg/injection, schedule: Q04DX003 (ip), vehicle: saline with Tween-80
[6] = dose: 200.0 mg/kg/injection, schedule: Q01DX009 (ip), vehicle: saline with Tween-80
[7] = dose: 200.0 mg/kg/injection, schedule: Q04DX003 (ip), vehicle: saline with Tween-80
[8] = dose: 400.0 mg/kg/injection, schedule: Q04DX003 (ip), vehicle: saline with Tween-80
[9] = dose: 100.0 mg/kg/injection, schedule: Q01DX009 (ip), vehicle: Klucel (hydroxypropylcellulose) (HPC)
[10] = dose: 200.0 mg/kg/injection, schedule: Q01DX009 (ip), vehicle: Klucel (hydroxypropylcellulose) (HPC)
[11] = dose: 400.0 mg/kg/injection, schedule: Q01DX009 (ip), vehicle: Klucel (hydroxypropylcellulose) (HPC)
[12] = dose: 100.0 mg/kg/injection, schedule: Q04DX003 (ip), vehicle: Klucel (hydroxypropylcellulose) (HPC)
[13] = dose: 200.0 mg/kg/injection, schedule: Q04DX003 (ip), vehicle: Klucel (hydroxypropylcellulose) (HPC)
[14] = dose: 400.0 mg/kg/injection, schedule: Q04DX003 (ip), vehicle: Klucel (hydroxypropylcellulose) (HPC)
[15] = dose: 25.0 mg/kg/injection, schedule: Q01DX009 (ip), vehicle: saline with Tween-80
[16] = dose: 6.25 mg/kg/injection, schedule: Q01DX009 (ip), vehicle: saline with Tween-80
[17] = dose: 12.5 mg/kg/injection, schedule: Q01DX009 (ip), vehicle: saline with Tween-80

Measured: T/C

CN(C)C(=S)NN
inactive: dose: 1.56 mg/kg/injection, schedule: Q01DX009 (ip), vehicle: saline with Tween-80 111 % of control | dose: 3.12 mg/kg/injection, schedule: Q01DX009 (ip), vehicle: saline with Tween-80 117 % of control

CSC(NC(=O)c1ccccc1)C(N)=O (centres undefined)
inactive: [1] 101 % of control | [2] 109 % of control | [3] 97 % of control

N#CCCN(CCCN1CCOCC1)CN1C(=O)c2ccccc2C1=O
inactive: dose: 100.0 mg/kg/injection, schedule: Q04DX002 (ip), vehicle: saline 104 % of control | dose: 200.0 mg/kg/injection, schedule: Q04DX002 (ip), vehicle: saline 93 % of control | dose: 400.0 mg/kg/injection, schedule: Q04DX002 (ip), vehicle: saline 111 % of control

CN(C)CCOC(c1ccccc1)c1ccccc1 (tested in a mixture with another compound)
inactive: dose: 100.0 mg/kg/injection, schedule: Q01DX001 (ip), vehicle: saline 109 % of control | dose: 200.0 mg/kg/injection, schedule: Q01DX001 (ip), vehicle: saline 101 % of control | dose: 400.0 mg/kg/injection, schedule: Q01DX001 (ip), vehicle: saline 95 % of control

ClCCOC(OCCCl)OCCCl
inactive: [4] 105 % of control | [5] 103 % of control | [6] 87 % of control | [7] 104 % of control | [8] 95 % of control

CCCCCCCCCCCCCCCCCC(=O)N/N=C/c1cccc([N+](=O)[O-])c1
inactive: [9] 94 % of control | [10] 96 % of control | [11] 88 % of control

Nc1c(Br)cc([N+](=O)[O-])cc1Br
inactive: [12] 111 % of control | [13] 95 % of control | [14] 105 % of control

CCC(C)C(=O)Nc1ccc(Cl)c(Cl)c1 (centres undefined)
inactive: dose: 100.0 mg/kg/injection, schedule: Q01DX001 (ip), vehicle: Klucel (hydroxypropylcellulose) (HPC) 108 % of control | dose: 200.0 mg/kg/injection, schedule: Q01DX001 (ip), vehicle: Klucel (hydroxypropylcellulose) (HPC) 95 % of control | dose: 222.0 mg/kg/injection, schedule: Q01DX Z (ip), vehicle: methylcellulose (MC) 90 % of control | dose: 333.0 mg/kg/injection, schedule: Q01DX Z (ip), vehicle: methylcellulose (MC) 102 % of control | dose: 400.0 mg/kg/injection, schedule: Q01DX001 (ip), vehicle: Klucel (hydroxypropylcellulose) (HPC) 95 % of control | dose: 500.0 mg/kg/injection, schedule: Q01DX Z (ip), vehicle: methylcellulose (MC) 96 % of control

CCCCCCCCNc1ccccc1
inactive: [5] 95 % of control | [7] 106 % of control | [8] 117 % of control

CSc1nc2ccc([N+](=O)[O-])cc2s1
inactive: [1] 93 % of control | [2] 97 % of control | [3] 101 % of control

CCCCCCCCc1ccc(C(C)=O)cc1
inactive: [9] 94 % of control | [12] 102 % of control | [10] 96 % of control | [13] 100 % of control | [11] 86 % of control | [14] 107 % of control

CC(C)(C)c1cccc(C(C)(C)C)n1
inactive: [5] 97 % of control | [7] 105 % of control | [8] 115 % of control

CC(C)(C)CC(C)(C)NCC(O)COc1ccc(C(C)(C)c2ccc(OCC(O)CNC(C)(C)CC(C)(C)C)cc2)cc1 (centres undefined)
inactive: dose: 3.13 mg/kg/injection, schedule: Q04DX003 (ip), vehicle: other 93 % of control | dose: 6.25 mg/kg/injection, schedule: Q01DX001 (ip), vehicle: saline sonified 97 % of control | dose: 6.25 mg/kg/injection, schedule: Q04DX003 (ip), vehicle: other 97 % of control | dose: 12.5 mg/kg/injection, schedule: Q01DX001 (ip), vehicle: saline sonified 96 % of control | dose: 12.5 mg/kg/injection, schedule: Q04DX003 (ip), vehicle: other 98 % of control | dose: 25.0 mg/kg/injection, schedule: Q04DX003 (ip), vehicle: other 93 % of control

c1ccc(CN2C3CCCC2CC(c2ccccc2)C3)cc1 (centres undefined)
inactive: [1] 92 % of control | [2] 87 % of control

COC(=O)c1ccccc1NC(=S)NC(=O)c1ccccc1F
inactive: [15] 93 % of control | dose: 50.0 mg/kg/injection, schedule: Q01DX009 (ip), vehicle: saline with Tween-80 92 % of control | [6] 91 % of control

Cc1ccc(N2CCN(CCCN3CCN(c4ccccc4Cl)CC3)CC2)cc1
inactive: [16] 99 % of control | [17] 89 % of control | dose: 12.5 mg/kg/injection, schedule: Q04DX003 (ip), vehicle: saline 92 % of control | [15] 94 % of control | dose: 25.0 mg/kg/injection, schedule: Q04DX003 (ip), vehicle: saline 90 % of control

C=CC1(C)CO1 (centres undefined)
inactive: dose: 100.0 mg/kg/injection, schedule: Q04DX003 (ip), vehicle: saline 93 % of control | dose: 200.0 mg/kg/injection, schedule: Q04DX003 (ip), vehicle: saline 112 % of control | dose: 400.0 mg/kg/injection, schedule: Q04DX003 (ip), vehicle: saline 96 % of control

Nc1nc(N)c2ncn(C3CC(CO)C(O)C3O)c2n1 (centres undefined)
inactive: [16] 91 % of control | [17] 98 % of control | [15] 102 % of control

O=NN(Cc1ccc(Cl)cc1)Nc1ncc[nH]1
inactive: [1] 101 % of control | [2] 96 % of control | [3] 93 % of control

Cc1ccc(C#CP(C#Cc2ccc(C)cc2)C#Cc2ccc(C)cc2)cc1
inactive: [4] 88 % of control

Cc1ccc(S(=O)(=O)Nc2ccc(C(=O)NC(CCC(=O)O)C(=O)O)cc2)cc1 (centres undefined)
inactive: dose: 100.0 mg/kg/injection, schedule: Q04DX003 (ip), vehicle: gum acacia 95 % of control | dose: 200.0 mg/kg/injection, schedule: Q04DX003 (ip), vehicle: gum acacia 98 % of control | dose: 400.0 mg/kg/injection, schedule: Q04DX003 (ip), vehicle: gum acacia 95 % of control

C[N+]1(C)C2CCCC1CC(=O)C2
inactive: dose: 150.0 mg/kg/injection, schedule: Q01DX001 (ip), vehicle: saline 107 % of control

COc1ccc(C(=O)N/N=C/c2ccc(C)cc2)cc1
inactive: [9] 102 % of control | [10] 102 % of control | [11] 105 % of control

CC(N)(CCCC(=O)O)C(=O)O (centres undefined)
inactive: dose: 176.0 mg/kg/injection, schedule: Q01DX001 (ip), vehicle: carboxymethylcellulose (CMC) 95 % of control | dose: 264.0 mg/kg/injection, schedule: Q01DX001 (ip), vehicle: carboxymethylcellulose (CMC) 100 % of control | dose: 400.0 mg/kg/injection, schedule: Q01DX001 (ip), vehicle: carboxymethylcellulose (CMC) 95 % of control | dose: 600.0 mg/kg/injection, schedule: Q01DX001 (ip), vehicle: carboxymethylcellulose (CMC) 98 % of control

C/C(C/C(C)=N\N=C(N)N)=N/N=C(N)N
inactive: dose: 15.0 mg/kg/injection, schedule: Q01DX Z (ip), vehicle: carboxymethylcellulose (CMC) 96 % of control | dose: 30.0 mg/kg/injection, schedule: Q01DX Z (ip), vehicle: carboxymethylcellulose (CMC) 98 % of control | dose: 60.0 mg/kg/injection, schedule: Q01DX Z (ip), vehicle: carboxymethylcellulose (CMC) 95 % of control | dose: 60.0 mg/kg/injection, schedule: Q01DX Z (oral), vehicle: carboxymethylcellulose (CMC) 90 % of control | dose: 120.0 mg/kg/injection, schedule: Q01DX Z (ip), vehicle: carboxymethylcellulose (CMC) 95 % of control | dose: 120.0 mg/kg/injection, schedule: Q01DX Z (oral), vehicle: carboxymethylcellulose (CMC) 90 % of control | dose: 240.0 mg/kg/injection, schedule: Q01DX Z (oral), vehicle: carboxymethylcellulose (CMC) 96 % of control | dose: 480.0 mg/kg/injection, schedule: Q01DX Z (oral), vehicle: carboxymethylcellulose (CMC) 96 % of control

CC(C)(C)c1ccccc1C(N)=O
inactive: dose: 100.0 mg/kg/injection, schedule: Q04DX003 (ip), vehicle: other 101 % of control | dose: 200.0 mg/kg/injection, schedule: Q04DX003 (ip), vehicle: other 109 % of control | dose: 400.0 mg/kg/injection, schedule: Q04DX003 (ip), vehicle: other 91 % of control

O=C(/C=C/c1ccccc1)c1ccc2c(c1)OCO2
inactive: dose: 100.0 mg/kg/injection, schedule: Q04DX003 (ip), vehicle: water 98 % of control | dose: 200.0 mg/kg/injection, schedule: Q04DX003 (ip), vehicle: water 96 % of control | dose: 400.0 mg/kg/injection, schedule: Q04DX003 (ip), vehicle: water 94 % of control
